The text below walks through data of patent US10532082B2, “SOCS1-derived peptide for use in chronic complications of diabetes” (Fundació Hospital Universitari Vall d'Hebron-Institut de …, priority 2014, dated 2020).

One assay has as its system diabetic mice (db/db). The assay can be described thus: Retinal glutamate metabolism (GLAST immunofluorescence, glutamate by UPLC). The class given is in vivo. To be noted: eye drops 15 days. The method, then:
8-week old diabetic mice (db/db) received the miS1 peptide in the form of eye drops (5 μL drops in each eye; 10 mg/mL; twice a day for 15 days; n=7 mice). Diabetic mice treated with the non-functional peptide Mut (n=7), treated with vehicle and non-diabetic mice (db/+) were used as controls. The eye drops were directly administered on the upper surface of the cornea of each eye using a micropipette. The weight and glycemia (colorimetric assay) were controlled throughout the study period. On day 15, the drop with the miS1 peptide or vehicle was administered about two hours before autopsy. […]
The glutamate metabolism was evaluated in order to investigate the mechanisms through which the miS1 peptide produces neuroprotection. The glutamate concentration was determined by means of ultra-high performance liquid chromatography (UPLC) (Acquity-UPLC, Waters) MassTrak amino acid system). The GLAST (Glutamate/Aspartate transporter) was evaluated by means of immunofluorescence.
The paraffin sections were deparaffinized in xylene and rehydrated in a gradual series of ethanol. […] The GLAST immunofluorescence was quantified by means of laser confocal microscopy (Olympus FluoView™ FV1000 confocal microscope, Hamburg, Germany) using the ImageJ software.

Assay [1] deals with streptozotocin diabetic apoE-deficient mice. The assay is described as follows: Atheromatous plaque size and composition in aorta of diabetic mice. The class given is in vivo. Conditions: STZ apoE mice, i.p. How it is done: Apolipoprotein E (apoE)-deficient male mice of 8 weeks of age were made diabetic through streptozotocin injection (125 mg/kg weight in 10 mM citrate, pH 4.5, two consecutive days). After 2 weeks, animals with glycemia greater than 350 mg/dL were randomly distributed in two groups (n=9 animals per group): treated animals (miS1 peptide: 65 μg/day, 200 μL, intraperitoneally, every 2 days for 8 weeks) and controls (vehicle). The weight and glycemia (colorimetric assay) were controlled throughout the study period.
At the end of the study, the anesthetized animals were perfused with saline and sacrificed, processing the tissues immediately. In renal cortex (paraffin sections, 5 μm) the glomerular and tubulointerstitial morphology was studied by means of PAS and Masson trichrome staining and the lesions were evaluated in a double-blind and semi-quantitative manner in a scale of 0-3. Renal fibrosis was determined by means of Picro-Sirius red staining and the infiltrating inflammatory cells (F4/80+ macrophages and CD3+ T-lymphocytes) by immunohistochemistry. In the aorta, the root/arch zone (serial cryosections of 8 μm from the valves to an extension of 1000 μm) was stained with Oil-red-O/hematoxylin and the area of the atherosclerotic lesion was quantified (Metamorph program). Plaque stability was assessed by collagen fiber staining with Picro-Sirius red and α-actin immunofluorescence. The inflammatory component was determined by means of immunohistochemistry for monocyte/macrophages (Moma2). The Image Pro-Plus program was used for quantifying positive stainings. The biochemical parameters in serum (glycated hemoglobin, cholesterol and creatinine) and in urine (albumin and creatinine) were determined by means of conventional commercial kits.

Assay [2] has as its system STAT3. The assay is described as follows: STAT3 activation in cytokine-stimulated macrophages (Western blot). The format is cell-based, murine. Conditions: pre-incubation 50-150 ug/mL (Mut 150 ug/mL), IFNγ and IL-6 stimulation. How it is done:
(§1) RAW264.7 macrophages and vascular smooth muscle cells (VSMC) cultured in a medium with 10% fetal bovine serum were used. The cells were synchronized (24 hours without serum), pre-incubated for 90 minutes with different peptide concentrations (miS1 or the control thereof, 50-150 μg/mL) and stimulated with cytokines (IFNγ […]). STAT activation was analyzed by means of Western blot for phosphorylated STAT1/STAT3 isoforms. JAK/STAT pathway-dependent chemokine (CCL2) expression was determined by means of ELISA. Cell viability was analyzed by MTT colorimetric assay and macrophage migration was analyzed by chemotaxis assay.
For orientation: In western blotting, separated proteins are transferred to a membrane and probed.

The next assay relates to STAT1. The assay is described as follows: STAT1 activation in cytokine-stimulated VSMC. The class given is cell-based, mouse. Conditions: IFNγ and IL-6 stimulation, immunofluorescence images.
Assay [3] has as its system STAT3. The assay is described as follows: STAT3 activation in cytokine-stimulated VSMC. The class given is cell-based, mouse. To be noted: IFNγ and IL-6 stimulation, immunofluorescence images.
In another assay the test system is RAW264.7 macrophages. The assay is described as follows: Cytokine-induced CCL2 production in macrophages (ELISA). The format is cell-based, murine. Conditions: pre-incubation with peptide, IFNγ and IL-6. How it is done: as §1

Where no end group is shown, it is not given here. [ ]: non-standard residue; d: D form. lysine‑palmitate = lysine-palmitate bound at the N-terminal end; pY = N[C@@H](Cc1ccc(OP(=O)(O)O)cc1)C(=O)O

Regarding “miS1: SEQ ID NO 1 DTHFRTFRSHSDYRRI, kinase inhibitory region of murine SOCS1, bound to lysine-palmitate at the N-terminal end, tyrosine phosphorylated ({lysine‑palmitate}-DTHFRTFRSHSD[pY]RRI)”, the intraretinal glutamate levels result with diabetic mice (db/db) (UPLC) is “reduced but without reaching statistical significance”. In the assay on diabetic mice (db/db) (immunofluorescence), the “GLAST content in retina” value is “downregulation was prevented”. Besides, the “reduction in the size and extension of atheromatous lesions” value in assay [1] (Oil-red-O/hematoxylin, compared with the control group that received the vehicle) was determined as 50%. Besides, in assay [1] (plaque composition), the “collagen and vascular cells content of plaques” value is recorded as “higher”; the “number of macrophages in the atherosclerotic lesions” value is listed as “reduction”. Besides, the “STAT3 activation (phosphorylation)” value in the assay with STAT3 [2] was “reduced STAT1 and STAT3 activation in a dose-dependent manner”. Also, in the assay on STAT1, the STAT1 activation entry was “prevented”. Moreover, the STAT3 activation entry in the assay on STAT3 [3] was “prevented”. For the same substance, in the assay with RAW264.7 macrophages, the “reduction of cytokine-induced CCL2 production” value was 30-40%.
